We go through 8 compounds from PubChem BioAssay (NCI).

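Compound exposure: 48 hours, 5 concentrations, 96-well plates. TGI marks complete inhibition of growth.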 Where only a bound is given, the exact number is not on record here.

Among the test systems are 786-0 renal; ACHN renal; BT-549 breast; COLO 205 colon; HCT-116 colon; HCT-15 colon; HS 578T breast; IGROV1 ovarian; MDA-MB-435; MOLT-4 leukemia; NCI-H460 lung; OVCAR-5 ovarian; SF-268 CNS; SK-MEL-28 melanoma; SK-OV-3 ovarian; SW-620 colon; T-47D breast; UO-31 renal.
Holding throughout (assay): NCI anticancer screen, dose series, 48 h

As to `Cc1ccc(OCC2OC(n3cnc4c(Cl)nc(Cl)nc43)CC2Oc2ccc(C)cc2)cc1` (stereo not given), the TGI with 786-0 renal was found to be 32.4 µM; in the test on ACHN renal, 2.66 µM; with BT-549 breast, 4.3 µM; in the test with COLO 205 colon, 3.73 µM; in the test on HCT-116 colon it was 3.65 µM; in the test on HCT-15 colon, 3.27 µM. In addition, the TGI in the test with HS 578T breast came to 5.21 µM; in the test on IGROV1 ovarian, 4.48 µM; in the test with MDA-MB-435, 5.48 µM; in the test on MOLT-4 leukemia, 4.27 µM; in the test with NCI-H460 lung it was 3.39 µM; in the test with OVCAR-5 ovarian, 19.1 µM. Also, the TGI with SF-268 CNS was 4.19 µM; with SK-MEL-28 melanoma, 7.56 µM; in the test with SK-OV-3 ovarian it was 35.9 µM; with SW-620 colon, above 100 µM; with T-47D breast, 4.53 µM.
For the compound `CCN(CC)C1C(=O)NC1C#Cc1ccccc1` (stereo not given), the TGI with 786-0 renal, in the test with ACHN renal, in the test on BT-549 breast, with COLO 205 colon, in the test on HCT-116 colon and in the test with HCT-15 colon was above 100 µM throughout. For the same compound, the TGI in the test with HS 578T breast, in the test on IGROV1 ovarian, with MDA-MB-435, in the test with NCI-H460 lung, with OVCAR-5 ovarian and in the test on SF-268 CNS was above 100 µM throughout. Moreover, the TGI in the test on SK-MEL-28 melanoma, with SK-OV-3 ovarian, in the test on SW-620 colon, in the test with T-47D breast and in the test with UO-31 renal was above 100 µM in each case.
As for `CCN(CC)C(=S)SC(C(=O)Nc1nnc(-c2ccccc2)o1)c1ccccc1` (stereo not given), the TGI in the test on 786-0 renal stood at 61.1 µM; in the test with ACHN renal, 57.7 µM; in the test on BT-549 breast it was 35 µM; in the test on COLO 205 colon, 84.4 µM; with HCT-116 colon, 34.7 µM; in the test with HCT-15 colon, 24.5 µM. Besides, the TGI in the test with HS 578T breast is above 100 µM; in the test on IGROV1 ovarian, above 100 µM; in the test with MDA-MB-435 it was 34.8 µM; in the test on MOLT-4 leukemia, above 100 µM; in the test with NCI-H460 lung, 31.6 µM; in the test on OVCAR-5 ovarian, 56.1 µM. For the same compound, the TGI with SK-MEL-28 melanoma is 54.6 µM; in the test with SK-OV-3 ovarian, above 100 µM; with SW-620 colon, above 100 µM; in the test on T-47D breast it was above 100 µM; in the test with UO-31 renal it was 23.9 µM.
Take `CC(=O)OCC1OC(O[C@@H]2C[C@H]3C(C)(C)[C@@H](OC(C)=O)CC[C@]3(C)[C@H]3CC[C@]45C[C@]4(CC[C@H]5[C@@H](C)C[C@@H](O)[C@H](O)C(C)(C)F)[C@@]32C)C(O)C(O)C1O` (stereo not given in full): the TGI with 786-0 renal is 3.24 µM; with ACHN renal, above 100 µM; in the test with BT-549 breast, 3.4 µM; with COLO 205 colon, 3.38 µM; with HCT-116 colon it was 2.95 µM; in the test with HCT-15 colon, 5.94 µM. Besides, the TGI in the test on HS 578T breast was 5.85 µM; in the test on IGROV1 ovarian, 4.45 µM; in the test with MDA-MB-435, 31.6 µM; with MOLT-4 leukemia, 4.28 µM; in the test with NCI-H460 lung it was above 100 µM; with OVCAR-5 ovarian, 2.81 µM. Moreover, the TGI in the test with SF-268 CNS is 3.05 µM; with SK-MEL-28 melanoma, 3.3 µM; with SK-OV-3 ovarian, above 100 µM; with SW-620 colon, 4.85 µM; in the test on T-47D breast, above 100 µM.
For `O=c1[nH]c(=O)n(C2CC(O)C(CO)O2)c2nc3ccc4cc5ccccc5cc4c3nc12` (stereo not given), the TGI in the test on 786-0 renal, in the test on ACHN renal, in the test on BT-549 breast, with COLO 205 colon, in the test with HCT-116 colon and in the test on HCT-15 colon was above 100 µM throughout. The TGI in the test with HS 578T breast, with IGROV1 ovarian, in the test on MDA-MB-435, in the test with MOLT-4 leukemia, in the test with OVCAR-5 ovarian and in the test with SF-268 CNS was above 100 µM in each case. The TGI in the test with SK-MEL-28 melanoma, in the test on SK-OV-3 ovarian, with SW-620 colon, with T-47D breast and in the test with UO-31 renal was above 100 µM in each case.
As for `CC(=O)OCC(C)(COC(C)=O)N1C(=O)C2C3c4ccccc4C(c4ccccc43)C2C1=O` (stereo not given), the TGI in the test with 786-0 renal, in the test on ACHN renal, in the test with BT-549 breast, with COLO 205 colon, with HCT-116 colon and with HCT-15 colon was above 100 µM in each case. Further, the TGI in the test with HS 578T breast, in the test on IGROV1 ovarian, in the test with MDA-MB-435, with MOLT-4 leukemia, in the test with NCI-H460 lung and in the test on OVCAR-5 ovarian was above 100 µM in each case. The TGI in the test with SF-268 CNS, with SK-OV-3 ovarian, in the test with SW-620 colon, with T-47D breast and in the test on UO-31 renal was above 100 µM throughout.
`COc1ccc(NC(C)=O)c(C(O)CCNC(C)=O)c1` (stereo not given): the TGI with 786-0 renal, in the test with ACHN renal, with BT-549 breast, in the test with COLO 205 colon, in the test with HCT-116 colon and in the test with HCT-15 colon was above 100 µM throughout. Moreover, the TGI in the test on HS 578T breast, in the test on IGROV1 ovarian, in the test with MDA-MB-435, in the test on MOLT-4 leukemia, in the test on NCI-H460 lung and with OVCAR-5 ovarian was above 100 µM throughout. Moreover, the TGI in the test with SF-268 CNS, in the test with SK-OV-3 ovarian, with SW-620 colon, in the test on T-47D breast and with UO-31 renal was above 100 µM throughout.
Consider `COC(=O)C(COC(=O)/C=C/c1ccc(OC(C)=O)c(OC(C)=O)c1)NC(=O)/C=C/c1ccc(OC(C)=O)c(OC(C)=O)c1` (stereo not given), for which the TGI was 47.2 µM in the test on 786-0 renal; 80.8 µM in the test with ACHN renal; above 100 µM with BT-549 breast; 43.4 µM in the test with COLO 205 colon; 42.6 µM in the test on HCT-116 colon; above 100 µM with HCT-15 colon. The TGI was above 100 µM in the test on HS 578T breast; above 100 µM in the test with IGROV1 ovarian; above 100 µM in the test on MDA-MB-435; above 100 µM in the test on MOLT-4 leukemia; 48.1 µM in the test with NCI-H460 lung; above 100 µM with OVCAR-5 ovarian. Moreover, the TGI with SK-MEL-28 melanoma is 81.7 µM; with SK-OV-3 ovarian, above 100 µM; in the test with SW-620 colon, above 100 µM; with T-47D breast, 38.8 µM.
